Patent publication US20210137948A1, “TREATMENT OF INFECTIONS CAUSED BY NEISSERIA GONOCOCCUS USING A HALOGENATED SALICYLANILIDE” (priority 2018, published 2021)
Like-named read-outs stand apart in the source and are kept apart here.

Columns and labels:
[1] = test system: rabbits; details: p.o.; cited from earlier work
[2] = test system: N. gonorrhoeae ATCC49226/MMX 683; test: Agar dilution MIC assay (Example 1); assay type: cell-based, Neisseria gonorrhoeae
Method: Neisseria gonococcus (N. gonorrhoeae) were assayed using a reference agar dilution method, see reference (2). Drug dilutions and drug-supplemented agar plates were prepared manually. Neisseria gonococcus was grown on Chocolate agar in a CO2 incubator overnight at 35° C. prior to assay. […] The MIC was read per CLSI guidelines, see reference (3).

[3] = test system: Neisseria gonorrhoeae CDC panel consisting of 48 isolates; test: Agar dilution MIC, CDC panel of 48 isolates (Example 2); assay type: cell-based; details: for MIC: Neisseria gonorrhoeae, read-out: Minimal inhibitory concentration; for in vitro activity (in words): against N. gonococcus (N. gonorrhoeae), Example 2 conclusion
Method: Neisseria gonorrhoeae (Neisseria gonocossus) were tested for antimicrobial susceptibility using agar dilution as described by the Clinical and Laboratory Standards Institute (CLSI), see reference (4).
The concentrations tested for each compound encompass the reported interpretive breakpoints and consist of 8 or more doubling dilutions, ensuring that there is one dilution below the lowest value of QC.
GC agar base +1% defined growth supplement.
Initial screening strains: Neisseria gonorrhoeae CDC panel consisting of 48 isolates. The strains were provided by Clinical and Environmental Microbiology Branch, Division of Healthcare Quality Promotion, CDC (Atlanta, US).
Dilution scheme for reference method: Prepare intermediate 100× antimicrobial agent solutions by making successive serial twofold dilutions. Then, add one part of the 100× antimicrobial solution to […] of molten agar. Plates containing no antimicrobial agent solutions are made for use as growth controls. It is important that no longer than one hour elapses between the time that the stock solution is thawed, the dilutions are prepared and added to the base medium and the plates are poured, see reference (5).
• Add appropriate dilutions of antimicrobial solution to molten test agars that have been allowed to equilibrate in a water bath to 50° C. • Mix the agar and antimicrobial solution thoroughly and pour (20 mL) into Petri dishes on a level surface. Pour quickly after mixing to prevent cooling and partial solidification in the mixing container. Avoid generating bubbles when mixing. • Allow the agar to solidify at room temperature and store them in sealed plastic bags at 2 to 8° C. for up to five days. Preferably use with 24 hours. • Allow plates stored at 2 to 8° C. to equilibrate to room temperature before use. Make certain that the agar surface is dry before inoculating the plates. If necessary, place the plates in an incubator or laminar flow hood for approximately 30 minutes with their lids ajar to hasten drying of the agar surface.
Inoculum preparation: Prepare a standardized inoculum for the agar dilution method by suspending isolated colonies of Neisseria gonorrhoeae selected from an 18-24 hour-old chocolate agar plate directly in Mueller Hinton Broth (MHB) to achieve the density equivalent to a 0.5 McFarland standard and adjusted to obtain a cell density of ˜1-2×10^8 CFU/mL. For N. gonorrhoeae, the McFarland solutions are made at a reading of ˜0.80 in densitometer (Grant Instruments DEN-1B Densitometer) because these values have been evaluated and correspond to the desired CFU/mL count.
Dilution of inoculum suspension: Cultures adjusted to the 0.5 McFarland standard contain approximately 1 to 2×10^8 CFU/mL with most species, and the final inoculum required is 10^4 CFU per spot. When using replicators with 3-mm pins that deliver ˜2.5 μL, dilute the 0.5 McFarland suspension 1:10 in sterile MHB to obtain a concentration of 10^7 CFU/mL. The final inoculum on the agar will be approximately 10^4 CFU per spot. Use the adjusted suspensions for final inoculation within 60 minutes of preparation, see reference (5).
The following procedure was followed: • Arrange the tubes containing the adjusted and diluted bacterial suspensions (10^7 CFU/mL) in order in a rack. Place an aliquot of each well-mixed suspension into the corresponding well in the replicator inoculum block (if being used). • Mark the agar plates for orientation of the inoculum spots. • Apply an aliquot of each inoculum (2.5 μL) to the agar surface, either with an inocula-replicating device or pipette, to obtain a final concentration of ˜10^4 CFU/spot. • Inoculate a growth-control plate (no antimicrobial agent) first and then, starting with the lowest concentration, inoculate the plates containing the different antimicrobial concentrations. […]

[4] = test system: mice; details: p.o.; cited from earlier work
[5] = test system: rats; details: cited from earlier work
[6] = via the urinary tract or by enzymatic metabolism in the liver; cited from earlier work
[7] = test system: cats; details: p.o.; cited from earlier work
[8] = Neisseria gonorrhoeae strain CDC # 165
[9] = Neisseria gonorrhoeae strain CDC # 166
[10] = Neisseria gonorrhoeae strain CDC # 167
[11] = Neisseria gonorrhoeae strain CDC # 169
[12] = Neisseria gonorrhoeae strain CDC # 170
[13] = Neisseria gonorrhoeae strain CDC # 171
[14] = Neisseria gonorrhoeae strain CDC # 172
[15] = Neisseria gonorrhoeae strain CDC # 173
[16] = Neisseria gonorrhoeae strain CDC # 174
[17] = Neisseria gonorrhoeae strain CDC # 175
[18] = Neisseria gonorrhoeae strain CDC # 176
[19] = Neisseria gonorrhoeae strain CDC # 177
[20] = Neisseria gonorrhoeae strain CDC # 178
[21] = Neisseria gonorrhoeae strain CDC # 179
[22] = Neisseria gonorrhoeae strain CDC # 180
[23] = Neisseria gonorrhoeae strain CDC # 181
[24] = Neisseria gonorrhoeae strain CDC # 182
[25] = Neisseria gonorrhoeae strain CDC # 183
[26] = Neisseria gonorrhoeae strain CDC # 184
[27] = Neisseria gonorrhoeae strain CDC # 185
[28] = Neisseria gonorrhoeae strain CDC # 186
[29] = Neisseria gonorrhoeae strain CDC # 187
[30] = Neisseria gonorrhoeae strain CDC # 188
[31] = Neisseria gonorrhoeae strain CDC # 189
[32] = Neisseria gonorrhoeae strain CDC # 190
[33] = Neisseria gonorrhoeae strain CDC # 191
[34] = Neisseria gonorrhoeae strain CDC # 192
[35] = Neisseria gonorrhoeae strain CDC # 193
[36] = Neisseria gonorrhoeae strain CDC # 194
[37] = Neisseria gonorrhoeae strain CDC # 195
[38] = Neisseria gonorrhoeae strain CDC # 196
[39] = Neisseria gonorrhoeae strain CDC # 198
[40] = Neisseria gonorrhoeae strain CDC # 199
[41] = Neisseria gonorrhoeae strain CDC # 200
[42] = Neisseria gonorrhoeae strain CDC # 201
[43] = Neisseria gonorrhoeae strain CDC # 202
[44] = Neisseria gonorrhoeae strain CDC # 203
[45] = Neisseria gonorrhoeae strain CDC # 204
[46] = Neisseria gonorrhoeae strain CDC # 205
[47] = Neisseria gonorrhoeae strain CDC # 206
[48] = Neisseria gonorrhoeae strain CDC # 207
[49] = Neisseria gonorrhoeae strain CDC # 208
[50] = Neisseria gonorrhoeae strain CDC # 209
[51] = Neisseria gonorrhoeae strain CDC # 210
[52] = Neisseria gonorrhoeae strain CDC # 211
[53] = Neisseria gonorrhoeae strain CDC # 212
[54] = Neisseria gonorrhoeae strain CDC # 213
[55] = Neisseria gonorrhoeae strain CDC # 214

O=C(Nc1ccc([N+](=O)[O-])cc1Cl)c1cc(Cl)ccc1O [Niclosamide, 2′,5-dichloro-4′-nitrosalicylanilide]
> 1000 mg/kg: LD50 [7]
good in vitro activity: in vitro activity (in words) ([2]; against N. gonococcus (N. gonorrhoeae), Example 1 conclusion)
quickly cleared: clearance from the bloodstream [6]
≤ 0.25 µg/mL: MIC [3, 8] | MIC [3, 9] | MIC [3, 10] | MIC [3, 11] | MIC [3, 12] | MIC [3, 13] | MIC [3, 14] | MIC [3, 15] | MIC [3, 16] | MIC [3, 17] | MIC [3, 18] | MIC [3, 19] | MIC [3, 20] | MIC [3, 21] | MIC [3, 22] | MIC [3, 23] | MIC [3, 24] | MIC [3, 25] | MIC [3, 26] | MIC [3, 27] | MIC [3, 28] | MIC [3, 29] | MIC [3, 30] | MIC [3, 31] | MIC [3, 32] | MIC [3, 33] | MIC [3, 34] | MIC [3, 35] | MIC [3, 36] | MIC [3, 37] | MIC [3, 38] | MIC [3, 39] | MIC [3, 40] | MIC [3, 41] | MIC [3, 42] | MIC [3, 43] | MIC [3, 44] | MIC [3, 45] | MIC [3, 46] | MIC [3, 47] | MIC [3, 48] | MIC [3, 49] | MIC [3, 50] | MIC [3, 51] | MIC [3, 52] | MIC [3, 53] | MIC [3, 54] | MIC [3, 55]
> 5000 mg/kg: LD50 [4]
Good in vitro activity: in vitro activity (in words) [3]
0.12 µg/mL: MIC ([2]; ATCC49226, Neisseria gonorrhoeae MMX 683/ATCC 49226, QC, read-out: Minimal Inhibitory Concentration) | Minimal Inhibitory Concentration ([2]; Neisseria gonorrhoeae MMX 683/ATCC 49226, QC)
5000 mg/kg: LD50 [1] | LD50 ([5]; p.o.)
2000 mg/kg: LD50 ([5]; dermal)

O=C(Nc1cc(Cl)cc(Cl)c1O)c1c(O)c(Cl)cc(Cl)c1Cl [Oxyclosanide, oxyclozanide]
980 to 3519 mg/kg: LD50 ([5]; p.o.)
Good in vitro activity: in vitro activity (in words) [3]
≤ 0.25 µg/mL: MIC [3, 8] | MIC [3, 9] | MIC [3, 10] | MIC [3, 11] | MIC [3, 12] | MIC [3, 13] | MIC [3, 14] | MIC [3, 15] | MIC [3, 16] | MIC [3, 17] | MIC [3, 18] | MIC [3, 19] | MIC [3, 20] | MIC [3, 21] | MIC [3, 22] | MIC [3, 23] | MIC [3, 24] | MIC [3, 25] | MIC [3, 26] | MIC [3, 27] | MIC [3, 28] | MIC [3, 29] | MIC [3, 30] | MIC [3, 31] | MIC [3, 32] | MIC [3, 33] | MIC [3, 34] | MIC [3, 35] | MIC [3, 36] | MIC [3, 37] | MIC [3, 38] | MIC [3, 39] | MIC [3, 40] | MIC [3, 41] | MIC [3, 42] | MIC [3, 43] | MIC [3, 44] | MIC [3, 45] | MIC [3, 46] | MIC [3, 47] | MIC [3, 48] | MIC [3, 49] | MIC [3, 50] | MIC [3, 51] | MIC [3, 52] | MIC [3, 53] | MIC [3, 54] | MIC [3, 55]
3200 mg/kg: LD50 [1]
300 mg/kg: LD50 [4]
2250 mg/kg: LD50, median ([5]; p.o., median of the studies)
